Results taken from patent publication US20120029187A1, “HALOALKYLSULFONANILIDE DERIVATIVE” (Nissan Chemical Industries, Ltd., priority 2009, published 2012).

Legend:
Assay type in all cases: in vivo
barnyardgrass [1] = test: Test Example 1: herbicidal effects in preemergence treatment under submerged conditions; details: dose 2.52 g/a
Method in brief: (§1)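 Submerged conditions, 4 cm water over alluvial soil. Weeds sown and 2.5-leaf rice transplanted; compound applied preemergence to water surface, doses in g per are. Greenhouse, 25 to 30° C., three weeks, then 0–5 mortality rating.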

bulrush [2] = test: as above; details: dose 2.52 g/a
Method in brief: as §1

ducksalad [3] = test: as above; details: dose 2.52 g/a
Method in brief: as §1

transplanted rice = test: Test Example 1: preemergence treatment under submerged conditions, effect on crop; details: dose 2.52 g/a
Method in brief: as §1

barnyardgrass [4] = test: Test Example 2: herbicidal effects during the vegetation period under submerged conditions; details: treatment during the vegetation period under submerged conditions; dose 2.52 g/a
Method in brief: (§2)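 Barnyardgrass, bulrush and ducksalad were co-sown in alluvial soil flooded to 4 cm and grown in a greenhouse at 25 to 30° C. At the 1- or 2-leaf stage, water-diluted emulsifiable concentrates went onto the water surface at set doses (g/a). Herbicidal effect was scored three weeks later on a graded scale.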

bulrush [5] = test: as above; details: treatment during the vegetation period under submerged conditions; dose 2.52 g/a
Method in brief: as §2

ducksalad [6] = test: as above; details: treatment during the vegetation period under submerged conditions; dose 2.52 g/a
Method in brief: as §2

Italian ryegrass [7] = test: Test Example 3: herbicidal effects in soil treatment; details: dose 3.2 g/a
Method in brief: (§3)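 Seeds were sown in sterilized diluvial soil and covered with about 1.5 cm of soil. Compounds, formulated as emulsifiable concentrates and diluted with water, were sprayed evenly over the soil surface at set doses in g/a. Herbicidal effect was scored on a rating scale three weeks later.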

barnyardgrass [8] = test: as above; details: dose 3.2 g/a
Method in brief: as §3

beadstraw [9] = test: as above; details: dose 3.2 g/a
Method in brief: as §3

common chickweed [10] = test: as above; details: dose 3.2 g/a
Method in brief: as §3

common lambsquater [11] = test: as above; details: dose 3.2 g/a
Method in brief: as §3

common ragweed [12] = test: as above; details: dose 3.2 g/a
Method in brief: as §3

giant foxtail [13] = test: as above; details: dose 3.2 g/a
Method in brief: as §3

large crabgrass [14] = test: as above; details: dose 3.2 g/a
Method in brief: as §3

posumbu knotweed [15] = test: as above; details: dose 3.2 g/a
Method in brief: as §3

redroot pigweed [16] = test: as above; details: dose 3.2 g/a
Method in brief: as §3

velvetleaf [17] = test: as above; details: dose 3.2 g/a
Method in brief: as §3

water foxtail [18] = test: as above; details: dose 3.2 g/a
Method in brief: as §3

wild oat [19] = test: as above; details: dose 3.2 g/a
Method in brief: as §3

Italian ryegrass [20] = test: Test Example 4: herbicidal effect in foliage treatment; details: dose 3.2 g/a, three weeks after application
Method in brief: (§4)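 Seeds were spot-sown in boxes of sterilized diluvial soil and raised in a greenhouse (25 to 30° C) for 14 days before a single foliar application. Compounds were applied as emulsifiable concentrates diluted with water, at predetermined doses in g/a. Injury was graded three weeks post-spray.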

barnyardgrass [21] = test: as above; details: dose 3.2 g/a, three weeks after application
Method in brief: as §4

beadstraw [22] = test: as above; details: dose 3.2 g/a, three weeks after application
Method in brief: as §4

common chickweed [23] = test: as above; details: dose 3.2 g/a, three weeks after application
Method in brief: as §4

common lambsquater [24] = test: as above; details: dose 3.2 g/a, three weeks after application
Method in brief: as §4

common ragweed [25] = test: as above; details: dose 3.2 g/a, three weeks after application
Method in brief: as §4

giant foxtail [26] = test: as above; details: dose 3.2 g/a, three weeks after application
Method in brief: as §4

large crabgrass [27] = test: as above; details: dose 3.2 g/a, three weeks after application
Method in brief: as §4

redroot pigweed [28] = test: as above; details: dose 3.2 g/a, three weeks after application
Method in brief: as §4

velvetleaf [29] = test: as above; details: dose 3.2 g/a, three weeks after application
Method in brief: as §4

water foxtail [30] = test: as above; details: dose 3.2 g/a, three weeks after application
Method in brief: as §4

wild oat [31] = test: as above; details: dose 3.2 g/a, three weeks after application
Method in brief: as §4

posumbu knotweed [32] = test: as above; details: dose 3.2 g/a, three weeks after application
Method in brief: as §4

O=C1CC(C(F)(F)F)OCN1Cc1ccccc1NS(=O)(=O)C(F)(F)F (stereo not shown) [II-14]
A: barnyardgrass, herbicidal effect (evaluation scale 0-5) (barnyardgrass [1]): 5 (mortality of 90% or above (nearly complete death))
B: bulrush, herbicidal effect (evaluation scale 0-5) (bulrush [2]): 5 (mortality of 90% or above (nearly complete death))
C: ducksalad, herbicidal effect (evaluation scale 0-5) (ducksalad [3]): 5 (mortality of 90% or above (nearly complete death))
a: transplanted rice, effect on crop (evaluation scale 0-5) (transplanted rice): 0 (mortality of less than 5% (almost ineffective))
A: barnyardgrass, herbicidal effect (evaluation scale 0-5) (barnyardgrass [4]): 5 (mortality of 90% or above (nearly complete death))
B: bulrush, herbicidal effect (evaluation scale 0-5) (bulrush [5]): 5 (mortality of 90% or above (nearly complete death))
C: ducksalad, herbicidal effect (evaluation scale 0-5) (ducksalad [6]): 5 (mortality of 90% or above (nearly complete death))
H: Italian ryegrass, herbicidal effect (evaluation scale 0-5) (Italian ryegrass [7]): 3 (mortality of at least 40% and less than 70%)
A: barnyardgrass, herbicidal effect (evaluation scale 0-5) (barnyardgrass [8]): 5 (mortality of 90% or above (nearly complete death))
O: beadstraw, herbicidal effect (evaluation scale 0-5) (beadstraw [9]): 5 (mortality of 90% or above (nearly complete death))
N: common chickweed, herbicidal effect (evaluation scale 0-5) (common chickweed [10]): 5 (mortality of 90% or above (nearly complete death))
L: common lambsquater, herbicidal effect (evaluation scale 0-5) (common lambsquater [11]): 4 (mortality of at least 70% and less than 90%)
J: common ragweed, herbicidal effect (evaluation scale 0-5) (common ragweed [12]): 4 (mortality of at least 70% and less than 90%)
E: giant foxtail, herbicidal effect (evaluation scale 0-5) (giant foxtail [13]): 4 (mortality of at least 70% and less than 90%)
D: large crabgrass, herbicidal effect (evaluation scale 0-5) (large crabgrass [14]): 5 (mortality of 90% or above (nearly complete death))
M: posumbu knotweed, herbicidal effect (evaluation scale 0-5) (posumbu knotweed [15]): 5 (mortality of 90% or above (nearly complete death))
K: redroot pigweed, herbicidal effect (evaluation scale 0-5) (redroot pigweed [16]): 4 (mortality of at least 70% and less than 90%)
I: velvetleaf, herbicidal effect (evaluation scale 0-5) (velvetleaf [17]): 5 (mortality of 90% or above (nearly complete death))
G: water foxtail, herbicidal effect (evaluation scale 0-5) (water foxtail [18]): 5 (mortality of 90% or above (nearly complete death))
F: wild oat, herbicidal effect (evaluation scale 0-5) (wild oat [19]): 0 (mortality of less than 5% (almost ineffective))
H: Italian ryegrass, herbicidal effect (Italian ryegrass [20]): 3 (mortality of at least 40% and less than 70%)
A: barnyardgrass, herbicidal effect (barnyardgrass [21]): 5 (mortality of 90% or above (nearly complete death))
O: beadstraw, herbicidal effect (beadstraw [22]): 3 (mortality of at least 40% and less than 70%)
N: common chickweed, herbicidal effect (common chickweed [23]): 3 (mortality of at least 40% and less than 70%)
L: common lambsquater, herbicidal effect (common lambsquater [24]): 4 (mortality of at least 70% and less than 90%)
J: common ragweed, herbicidal effect (common ragweed [25]): 3 (mortality of at least 40% and less than 70%)
E: giant foxtail, herbicidal effect (giant foxtail [26]): 4 (mortality of at least 70% and less than 90%)
D: large crabgrass, herbicidal effect (large crabgrass [27]): 4 (mortality of at least 70% and less than 90%)
K: redroot pigweed, herbicidal effect (redroot pigweed [28]): 0 (mortality of less than 5% (almost ineffective))
I: velvetleaf, herbicidal effect (velvetleaf [29]): 4 (mortality of at least 70% and less than 90%)
G: water foxtail, herbicidal effect (water foxtail [30]): 5 (mortality of 90% or above (nearly complete death))
F: wild oat, herbicidal effect (wild oat [31]): 0 (mortality of less than 5% (almost ineffective))

CC(C)COC(=O)N(c1ccccc1CN1COC(C(F)(F)F)CC1=O)S(=O)(=O)C(F)(F)F (stereo not shown) [II-16]
A: barnyardgrass, herbicidal effect (evaluation scale 0-5) (barnyardgrass [1]): 5 (mortality of 90% or above (nearly complete death))
B: bulrush, herbicidal effect (evaluation scale 0-5) (bulrush [2]): 5 (mortality of 90% or above (nearly complete death))
C: ducksalad, herbicidal effect (evaluation scale 0-5) (ducksalad [3]): 5 (mortality of 90% or above (nearly complete death))
a: transplanted rice, effect on crop (evaluation scale 0-5) (transplanted rice): 0 (mortality of less than 5% (almost ineffective))
A: barnyardgrass, herbicidal effect (evaluation scale 0-5) (barnyardgrass [4]): 1 (mortality of at least 5% and less than 20%)
B: bulrush, herbicidal effect (evaluation scale 0-5) (bulrush [5]): 5 (mortality of 90% or above (nearly complete death))
C: ducksalad, herbicidal effect (evaluation scale 0-5) (ducksalad [6]): 4 (mortality of at least 70% and less than 90%)
H: Italian ryegrass, herbicidal effect (evaluation scale 0-5) (Italian ryegrass [7]): 0 (mortality of less than 5% (almost ineffective))
A: barnyardgrass, herbicidal effect (evaluation scale 0-5) (barnyardgrass [8]): 0 (mortality of less than 5% (almost ineffective))
O: beadstraw, herbicidal effect (evaluation scale 0-5) (beadstraw [9]): 0 (mortality of less than 5% (almost ineffective))
L: common lambsquater, herbicidal effect (evaluation scale 0-5) (common lambsquater [11]): 1 (mortality of at least 5% and less than 20%)
J: common ragweed, herbicidal effect (evaluation scale 0-5) (common ragweed [12]): 3 (mortality of at least 40% and less than 70%)
E: giant foxtail, herbicidal effect (evaluation scale 0-5) (giant foxtail [13]): 0 (mortality of less than 5% (almost ineffective))
D: large crabgrass, herbicidal effect (evaluation scale 0-5) (large crabgrass [14]): 0 (mortality of less than 5% (almost ineffective))
M: posumbu knotweed, herbicidal effect (evaluation scale 0-5) (posumbu knotweed [15]): 0 (mortality of less than 5% (almost ineffective))
K: redroot pigweed, herbicidal effect (evaluation scale 0-5) (redroot pigweed [16]): 0 (mortality of less than 5% (almost ineffective))
I: velvetleaf, herbicidal effect (evaluation scale 0-5) (velvetleaf [17]): 0 (mortality of less than 5% (almost ineffective))
G: water foxtail, herbicidal effect (evaluation scale 0-5) (water foxtail [18]): 5 (mortality of 90% or above (nearly complete death))
F: wild oat, herbicidal effect (evaluation scale 0-5) (wild oat [19]): 0 (mortality of less than 5% (almost ineffective))
H: Italian ryegrass, herbicidal effect (Italian ryegrass [20]): 0 (mortality of less than 5% (almost ineffective))
A: barnyardgrass, herbicidal effect (barnyardgrass [21]): 0 (mortality of less than 5% (almost ineffective))
O: beadstraw, herbicidal effect (beadstraw [22]): 0 (mortality of less than 5% (almost ineffective))
N: common chickweed, herbicidal effect (common chickweed [23]): 2 (mortality of at least 20% and less than 40%)
L: common lambsquater, herbicidal effect (common lambsquater [24]): 3 (mortality of at least 40% and less than 70%)
J: common ragweed, herbicidal effect (common ragweed [25]): 2 (mortality of at least 20% and less than 40%)
E: giant foxtail, herbicidal effect (giant foxtail [26]): 0 (mortality of less than 5% (almost ineffective))
D: large crabgrass, herbicidal effect (large crabgrass [27]): 0 (mortality of less than 5% (almost ineffective))
M: posumbu knotweed, herbicidal effect (posumbu knotweed [32]): 0 (mortality of less than 5% (almost ineffective))
K: redroot pigweed, herbicidal effect (redroot pigweed [28]): 0 (mortality of less than 5% (almost ineffective))
I: velvetleaf, herbicidal effect (velvetleaf [29]): 0 (mortality of less than 5% (almost ineffective))
G: water foxtail, herbicidal effect (water foxtail [30]): 5 (mortality of 90% or above (nearly complete death))
F: wild oat, herbicidal effect (wild oat [31]): 0 (mortality of less than 5% (almost ineffective))
